Where two headings read alike, the source gives them in different places. Non-standard residues stand in square brackets, D forms with d. Residues, ends and D or L forms follow the SMILES beside them. Oic = O=C(O)[C@@H]1C[C@@H]2CCCC[C@@H]2N1; 2Nal = N[C@@H](Cc1ccc2ccccc2c1)C(=O)O; d2Nal = N[C@H](Cc1ccc2ccccc2c1)C(=O)O; Hyp = O=C(O)[C@@H]1C[C@@H](O)CN1; Tic = O=C(O)[C@@H]1Cc2ccccc2CN1; dTic = O=C(O)[C@H]1Cc2ccccc2CN1; 2Thi = N[C@@H](Cc1cccs1)C(=O)O; Sar = CNCC(=O)O

Data set [1] concerns T1, angiotensin-converting enzyme (ACE).
T1 construct: purified angiotensin-converting enzyme (ACE) from rabbit lungs; purchased Sigma, St-Louis, Mo; host or cells: purified from rabbit lungs
Nature of the data set: Metabolic degradation by purified angiotensin-converting enzyme, HPLC analysis. It is filed as in vitro ADME, rabbit. The conditions noted are these: rabbit, isolated enzyme ace, pH 7.5. The protocol: (§1) The metabolic stability of various kinin-related peptides was evaluated by incubating the peptide in the presence of purified angiotensin-converting enzyme (ACE) from rabbit lungs (purchased from Sigma, St-Louis, Mo.) dissolved in phosphate buffered saline (PBS) (50 mmol/L, pH 7.5 containing 300 mmoL/L NaCl); the final concentration of enzyme was 45 μg/mL. The experimental protocol for the measurement of ACE activity has been described elsewhere^15,16. Briefly, 200 μmol/L of peptides (40 μL) were placed in a PBS buffer and incubated for 5 min at 37EC before adding 8.5 μL of ACE (total volume of the reaction medium; 190 μL). Samples were withdrawn at 30 min intervals, immersed in boiling water for 5 min, then cooled on ice and centrifuged (5 min) before proceeding to analysis of peptides by high pressure liquid chromatography (HPLC). Results of ACE metabolism are expressed in percent of kinin degradation following the incubation (30 min) of kinin substrates with the enzyme.
(§2) Pure peptides and metabolic products were analysed by reverse-phas HPLC on a C18 μBondapak column (4.6 mm×25 cm) (Waters) of 10-μm particle size. The peptides and their fragments were eluted at the rate of 2.0 mL/min. with a linear gradient ranging from 5 to 65% of acetonitrile/TFA 0.05%/water over 20 min. at room temperature. The elution positions of these peptides were determined by following the absorbance at 214 nm. For each assay, 50 μL of the reaction medium (treated or not with ACE) were extracted and injected into the column. Concentrations of the peaks products, different from the peaks of the peptide substrate, were estimated using a computer software program (Baseline 810; Waters) that controlled also all the chromatography operations. Isolated metabolites and substrates were collected and identified by Electrospray mass spectrometry (positive mode).

For data set [2], the target named is T2, angiotensin-converting enzyme (ACE) from rabbit lungs (Oryctolagus cuniculus, UniProt P12822).
T2 sequence (P12822 34-1310): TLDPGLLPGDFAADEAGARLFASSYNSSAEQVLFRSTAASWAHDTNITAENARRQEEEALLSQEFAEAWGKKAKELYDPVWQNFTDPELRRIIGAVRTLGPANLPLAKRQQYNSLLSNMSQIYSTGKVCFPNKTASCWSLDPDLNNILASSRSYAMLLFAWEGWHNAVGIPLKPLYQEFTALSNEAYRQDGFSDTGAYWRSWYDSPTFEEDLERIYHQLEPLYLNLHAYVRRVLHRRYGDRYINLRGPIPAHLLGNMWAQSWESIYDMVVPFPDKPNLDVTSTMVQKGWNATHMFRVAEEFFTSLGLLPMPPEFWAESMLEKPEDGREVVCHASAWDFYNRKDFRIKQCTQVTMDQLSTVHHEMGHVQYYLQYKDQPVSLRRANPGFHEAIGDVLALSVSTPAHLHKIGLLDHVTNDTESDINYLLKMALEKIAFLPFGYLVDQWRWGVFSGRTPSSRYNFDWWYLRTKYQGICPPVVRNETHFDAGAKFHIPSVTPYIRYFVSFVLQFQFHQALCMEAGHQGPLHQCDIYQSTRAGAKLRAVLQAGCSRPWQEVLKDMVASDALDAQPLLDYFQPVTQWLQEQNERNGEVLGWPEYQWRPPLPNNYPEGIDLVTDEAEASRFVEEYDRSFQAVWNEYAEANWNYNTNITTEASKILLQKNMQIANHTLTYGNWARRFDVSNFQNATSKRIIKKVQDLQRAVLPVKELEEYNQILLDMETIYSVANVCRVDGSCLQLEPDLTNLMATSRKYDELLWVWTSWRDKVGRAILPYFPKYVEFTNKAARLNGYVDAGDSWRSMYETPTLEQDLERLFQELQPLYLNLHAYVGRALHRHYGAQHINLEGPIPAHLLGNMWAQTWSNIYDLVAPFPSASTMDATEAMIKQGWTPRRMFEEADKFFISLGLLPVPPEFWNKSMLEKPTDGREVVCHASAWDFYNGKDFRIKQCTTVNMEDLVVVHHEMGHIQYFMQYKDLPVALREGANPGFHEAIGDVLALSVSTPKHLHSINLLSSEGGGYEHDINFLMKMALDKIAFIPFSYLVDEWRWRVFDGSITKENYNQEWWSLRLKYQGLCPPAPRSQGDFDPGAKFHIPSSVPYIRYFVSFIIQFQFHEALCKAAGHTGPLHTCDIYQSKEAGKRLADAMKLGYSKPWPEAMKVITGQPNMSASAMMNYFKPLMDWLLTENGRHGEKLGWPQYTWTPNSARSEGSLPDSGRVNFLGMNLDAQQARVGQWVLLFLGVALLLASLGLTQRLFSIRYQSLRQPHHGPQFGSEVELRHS
Described as above. Also on record: purified angiotensin-converting enzyme (ACE) from rabbit lungs; purchased Sigma, St-Louis, Mo; host or cells: purified from rabbit lungs. It is filed as in vitro ADME. As for the experimental part: as §1, §2

Setting [3] is: 30 min incubation of peptide (200 μmol/L) with ACE, 37 C, read-out: ACE (% degradation).

Consider `CC(C)C[C@H](NC(=O)[C@H]1Cc2ccccc2CN1C(=O)[C@H](CO)NC(=O)[C@H](Cc1ccccc1)NC(=O)CNC(=O)[C@@H]1CCCN1C(=O)[C@@H]1CCCN1C(=O)[C@@H](N)CCCNC(=N)N)C(=O)O` [Compound 8, (D-Tic^7, Leu^8)desArg^9BK] (H-RPPGFS[dTic]L-OH; N-terminus and C-terminus assumed), for which, in data set [1], the metabolised at 0.5 h is 0%. Moreover, in data set [2], the “Less susceptible to ACE proteolytic degradation, relative to Lys(Leu8)desArgBK” value (“Less susceptible … relative to Lys(Leu8)desArgBK” below) was 2-5 times.
With `CNCC(=O)N[C@@H](CCCNC(=N)N)C(=O)N1CCC[C@H]1C(=O)N1CCC[C@H]1C(=O)NCC(=O)N[C@@H](Cc1ccccc1)C(=O)N[C@@H](CO)C(=O)N1Cc2ccccc2C[C@@H]1C(=O)N[C@@H](CC(C)C)C(=O)O` [Compound 9, Sar(D-Tic^7, Leu^8)desArg^9BK] (H-[Sar]RPPGFS[dTic]L-OH; N-terminus and C-terminus assumed), in data set [1] (setting [3]), the metabolised at 0.5 h was 0%. The “Less susceptible … relative to Lys(Leu8)desArgBK” value in data set [2] is 2-5 times.
In data set [1], `CC(C)C[C@H](NC(=O)[C@H]1Cc2ccccc2CN1C(=O)[C@H](CO)NC(=O)[C@H](Cc1ccccc1)NC(=O)CNC(=O)[C@@H]1CCCN1C(=O)[C@@H]1CCCN1C(=O)[C@H](CCCNC(=N)N)NC(=O)[C@H](N)CCCNC(=N)N)C(=O)O` [Compound 12, D-Arg(D-Tic^7, Leu^8)desArg^9BK] (H-[dR]RPPGFS[dTic]L-OH; N-terminus and C-terminus assumed) displayed a metabolised at 0.5 h of 0%. In data set [2], the “Less susceptible … relative to Lys(Leu8)desArgBK” value was 2-5 times.
The like results for `CC[C@H](C)[C@H](NC(=O)[C@H]1Cc2ccccc2CN1C(=O)[C@H](CO)NC(=O)[C@H](Cc1ccccc1)NC(=O)CNC(=O)[C@@H]1CCCN1C(=O)[C@@H]1CCCN1C(=O)[C@H](CCCNC(=N)N)NC(=O)[C@H](N)CCCNC(=N)N)C(=O)O` [Compound 13, D-Arg(D-Tic^7, Ile^8)desArg^9BK] (H-[dR]RPPGFS[dTic]I-OH; N-terminus and C-terminus assumed) were, in that order, 9 ± 1% and 2-5 times.
In turn, `CC[C@H](C)[C@H](NC(=O)[C@@H]1Cc2ccccc2CN1C(=O)[C@H](CO)NC(=O)[C@H](Cc1ccccc1)NC(=O)CNC(=O)[C@@H]1CCCN1C(=O)[C@@H]1CCCN1C(=O)[C@H](CCCNC(=N)N)NC(=O)[C@H](N)CCCNC(=N)N)C(=O)O` [Compound 14, D-Arg(L-Tic^7, Ile^8)desArg^9BK] (H-[dR]RPPGFS[Tic]I-OH; N-terminus and C-terminus assumed) yielded a metabolised at 0.5 h in data set [1] of 77 ± 3%.
`CC(C)C[C@H](NC(=O)[C@H]1Cc2ccccc2CN1C(=O)[C@H](CO)NC(=O)[C@H](Cc1ccccc1)NC(=O)CNC(=O)[C@@H]1C[C@@H](O)CN1C(=O)[C@@H]1CCCN1C(=O)[C@H](CCCNC(=N)N)NC(=O)[C@H](N)CCCNC(=N)N)C(=O)O` [Compound 17, D-Arg(Hyp^3, D-Tic^7, Leu^8)desArg^9BK] (H-[dR]RP[Hyp]GFS[dTic]L-OH; N-terminus and C-terminus assumed): in data set [1], the metabolised at 0.5 h worked out at 0%. For the same molecule, the “Less susceptible … relative to Lys(Leu8)desArgBK” value in data set [2] is reported as 2-5 times.
In data set [1], `CC(=O)N[C@@H](CCCCN)C(=O)N[C@@H](CCCNC(=N)N)C(=O)N1CCC[C@H]1C(=O)N1CCC[C@H]1C(=O)NCC(=O)N[C@@H](Cc1ccccc1)C(=O)N[C@@H](CO)C(=O)N[C@H](Cc1ccc2ccccc2c1)C(=O)N[C@@H](CC(C)C)C(=O)O` [Compound 18, AcLys(D-βNal^7, Leu^8)desArg^9BK] (Ac-KRPPGFS[d2Nal]L-OH; C-terminus assumed) yielded a metabolised at 0.5 h, 42.1 μmol/L of 22 ± 1%. For the same molecule, the “Less susceptible … relative to Lys(Leu8)desArgBK” value in data set [2] is 2-5 times.
The like results for `CC[C@H](C)[C@H](NC(=O)[C@@H](Cc1ccc2ccccc2c1)NC(=O)[C@H](CO)NC(=O)[C@H](Cc1ccccc1)NC(=O)CNC(=O)[C@@H]1CCCN1C(=O)[C@@H]1CCCN1C(=O)[C@H](CCCN=C(N)N)NC(=O)[C@H](CCCCN)NC(C)=O)C(=O)O` [Compound 19, AcLys(D-βNal^7, Ile^8)desArg^9BK] (Ac-KRPPGFS[d2Nal]I-OH) were, in that order, 34 ± 1% and 2-5 times.
The molecule `CC[C@H](C)[C@H](NC(=O)[C@H](Cc1ccc2ccccc2c1)NC(=O)[C@H](CO)NC(=O)[C@H](Cc1ccccc1)NC(=O)CNC(=O)[C@@H]1CCCN1C(=O)[C@@H]1CCCN1C(=O)[C@H](CCCNC(=N)N)NC(=O)[C@H](CCCCN)NC(C)=O)C(=O)O` [Compound 20, AcLys(L-βNal^7, Ile^8)desArg^9BK] (Ac-KRPPGFS[2Nal]I-OH; C-terminus assumed) had a metabolised at 0.5 h, 42.1 μmol/L in data set [1] of 99 ± 1%.
On to `CC[C@H](C)[C@H](NC(=O)[C@@H](Cc1ccc2ccccc2c1)NC(=O)[C@H](CO)NC(=O)[C@H](Cc1ccccc1)NC(=O)CNC(=O)[C@@H]1CCCN1C(=O)[C@@H]1CCCN1C(=O)[C@H](CCCNC(=N)N)NC(=O)[C@H](N)CCCNC(=N)N)C(=O)O` [Compound 23, D-Arg(D-βNal^7, Ile^8)desArg^9BK] (H-[dR]RPPGFS[d2Nal]I-OH; N-terminus and C-terminus assumed), for which the metabolised at 0.5 h, 42.1 μmol/L in data set [1] turned out to be 8 ± 1%. Also, in data set [2], the “Less susceptible … relative to Lys(Leu8)desArgBK” value was 2-5 times.
`CC(C)C[C@H](NC(=O)[C@@H](Cc1ccc2ccccc2c1)NC(=O)[C@H](CO)NC(=O)[C@H](Cc1ccccc1)NC(=O)CNC(=O)[C@@H]1CCCN1C(=O)[C@@H]1CCCN1C(=O)[C@H](CCCNC(=N)N)NC(=O)[C@H](N)CCCNC(=N)N)C(=O)O` [Compound 24, D-Arg(D-βNal^7, Leu^8)desArg^9BK] (H-[dR]RPPGFS[d2Nal]L-OH; N-terminus and C-terminus assumed): the metabolised at 0.5 h, 42.1 μmol/L in data set [1] is 5 ± 1%. Besides, the “Less susceptible … relative to Lys(Leu8)desArgBK” value in data set [2] is recorded as 2-5 times.
`N=C(N)NCCC[C@@H](N)C(=O)N[C@@H](CCCNC(=N)N)C(=O)N1CCC[C@H]1C(=O)N1C[C@H](O)C[C@H]1C(=O)NCC(=O)N[C@@H](Cc1cccs1)C(=O)N[C@@H](CO)C(=O)N1Cc2ccccc2C[C@@H]1C(=O)N1[C@H](C(=O)O)C[C@@H]2CCCC[C@@H]21` [Compound 31, D-Arg(Hyp^3, Thi^5, D-Tic^7, Oic^8)desArg^9BK, reference compound] (H-[dR]RP[Hyp]G[2Thi]S[dTic][Oic]-OH; N-terminus and C-terminus assumed): in data set [1] (setting [3]), the metabolised at 0.5 h turned out to be 0%.
